From patent publication US20170247326A1, “Substituted Pyrrolidine Carboxamide Compounds” (EPIZYME, INC., priority 2014, published 2017)

Target: T1, SMYD2 (Homo sapiens, UniProt Q9NRG4)
T1 construct: Full length SMYD2 (NP_064582.2) was cloned; His6 (N, cleaved yes); FLAG (N); made in house; host or cells: Sf9 insect cells
T1 sequence (Q9NRG4 whole entry): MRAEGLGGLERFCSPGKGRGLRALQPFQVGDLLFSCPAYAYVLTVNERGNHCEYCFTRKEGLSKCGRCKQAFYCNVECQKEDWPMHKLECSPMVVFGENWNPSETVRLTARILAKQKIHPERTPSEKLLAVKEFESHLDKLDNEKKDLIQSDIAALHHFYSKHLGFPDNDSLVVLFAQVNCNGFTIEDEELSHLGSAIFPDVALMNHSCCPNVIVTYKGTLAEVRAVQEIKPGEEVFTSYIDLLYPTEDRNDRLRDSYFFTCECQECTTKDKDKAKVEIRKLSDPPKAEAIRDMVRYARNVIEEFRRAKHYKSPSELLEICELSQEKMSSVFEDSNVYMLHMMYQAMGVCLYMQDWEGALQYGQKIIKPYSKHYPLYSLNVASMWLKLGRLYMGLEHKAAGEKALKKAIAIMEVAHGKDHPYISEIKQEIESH
Experiment: SMYD2 biochemical assay (3H-SAM, biotinylated peptide substrate, Flashplate)
Conditions: Table 1; average of n = 1 to n = 50; read-out: SMYD2 Biochem IC50
Outline: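 Full-length His/FLAG-tagged SMYD2 (tag removed, Sf9-expressed) at 1.5 nM was preincubated with compound for 30 min at room temperature in Bicine pH 7.6 buffer with 2% DMSO. Reaction used 10 nM 3H-SAM and 60 nM biotinylated peptide, stopped with 600 uM cold SAM. Streptavidin-captured 3H-peptide counted; IC50 from 3- or 4-parameter fit.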
In the case of `C[C@H]1CN(C2CC2)C[C@H]1NC(=O)Cc1ccc2c(c1)NC(=O)CO2` (racemic) [compound 4, (±)-cis-N-(1-cyclopropyl-4-methylpyrrolidin-3-yl)-2-(3-oxo-3,4-dihydro-2H-benzo[b][1,4]oxazin-6-yl)acetamide], the IC50 is reported as greater than 50 µM.

Same assay, conditions: Table 3; average of n = 1 to n = 50; read-out: SMYD2 Biochem IC50
In the case of `CC(C)N1C[C@H](C)[C@H](NC(=O)c2cnc(C3CC3)o2)C1` (racemic) [compound 78, (±)-cis-2-cyclopropyl-N-[4-methyl-1-(propan-2-yl)pyrrolidin-3-yl]-1,3-oxazole-5-carboxamide], the IC50 is reported as greater than 50 µM. `CC(C)N1C[C@@H](C)[C@H](NC(=O)c2c[nH]c(C3CC3)n2)C1` (racemic) [compound 71, (±)-trans-2-cyclopropyl-N-[4-methyl-1-(propan-2-yl)pyrrolidin-3-yl]-1H-imidazole-4-carboxamide] gave an IC50 greater than 50 µM. In the case of `CN(C)C1CCC(NC(=O)c2cn(C3CC3)nn2)C1` (stereo not drawn) [compound 122, 1-cyclopropyl-N-[3-(dimethylamino)cyclopentyl]-1H-1,2,3-triazole-4-carboxamide], the IC50 is reported as greater than 50 µM. In the case of `CC(C)N1C[C@H](C)[C@H](NC(=O)c2c[nH]c(C3CC3)n2)C1` (racemic) [compound 77, (±)-cis-2-cyclopropyl-N-[4-methyl-1-(propan-2-yl)pyrrolidin-3-yl]-1H-imidazole-4-carboxamide], the IC50 is reported as greater than 50 µM. `C[C@H]1CN(Cc2ccccc2)C[C@H]1NC(=O)c1cc(C2CC2)cnn1` (racemic) [compound 99, (±)-cis-N-(1-benzyl-4-methylpyrrolidin-3-yl)-5-cyclopropylpyridazine-3-carboxamide] showed an IC50 of 0.574 µM. For `CC(C)N1C[C@H](C)[C@H](NC(=O)c2cc(C3CCC3)cnn2)C1` (racemic) [compound 94, (±)-cis-5-cyclobutyl-N-[4-methyl-1-(propan-2-yl)pyrrolidin-3-yl]pyridazine-3-carboxamide], the IC50 was greater than 50 µM. Work on `CC(C)c1cnnc(C(=O)N[C@@H]2CN(C(C)C)C[C@@H]2C)c1` (racemic) [compound 118, (±)-cis-5-isopropyl-N-(1-isopropyl-4-methylpyrrolidin-3-yl)pyridazine-3-carboxamide] yielded an IC50 of 10.4 µM. `CC(C)N1C[C@H](C)[C@H](NC(=O)c2cc(C3CC3)ns2)C1` (racemic) [compound 91, (±)-cis-3-cyclopropyl-N-[4-methyl-1-(propan-2-yl)pyrrolidin-3-yl]-1,2-thiazole-5-carboxamide] gave an IC50 greater than 50 µM. Work on `CC(C)N1C[C@H](C)[C@H](NC(=O)c2cnnc(C3CC3)c2)C1` (racemic) [compound 64, (±)-cis-6-cyclopropyl-N-[4-methyl-1-(propan-2-yl)pyrrolidin-3-yl]pyridazine-4-carboxamide] yielded an IC50 greater than 50 µM.

Same assay, conditions: Table 4; average of n = 1 to n = 50; read-out: SMYD2 Biochem IC50
`C[C@H]1CN(S(=O)(=O)CCCN)C[C@H]1NC(=O)c1cc(C2CC2)cnn1` (racemic) [compound 126, rac-N-((3R,4R)-1-((3-aminopropyl)sulfonyl)-4-methylpyrrolidin-3-yl)-5-cyclopropylpyridazine-3-carboxamide] gave an IC50 greater than 50 µM.

Test system: esophageal, liver and breast cancer cell lines
Experiment: not given
Conditions: dose-dependent; Nguyen et al. J Biol Chem. 2015; cited from earlier work
In the case of `Cc1cn(CCN2CCN(c3ccccc3-c3cc(C#N)cc(C(=O)NCCCN4CCCC4)c3)CC2)c2ccccc12` [LLY-507], the “proliferation of several esophageal, liver and breast cancer cell lines” value is listed as “inhibited the proliferation”.
